# Structures can show the parent of a compound that is named as a salt.
# How the values were obtained:
# rabbit GSK-3β = rabbit GSK-3β (Oryctolagus cuniculus, UniProt G1T8E2); experiment: GSK-3β-inhibitory activity (phosphorylation of CREB phosphopeptide, [γ-32P]ATP, scintillation counting); assay type: biochemical; settings: rabbit GSK-3β (0.5 unit), 30° C. for 20 minutes, Table 1
# Experimental: CREB phosphopeptide ([…]), rabbit GSK-3β (0.5 unit), ATP ([…]), [γ-^32P]ATP (12.3 kBq) and a test compound were reacted in a GSK-3β buffer solution (25 μL) (20 mmol/L Tris-HCl (pH 7.5), 10 mmol/L magnesium chloride, 5 mmol/L dithiothreitol) containing 1% dimethyl sulfoxide, at 30° C. for 20 minutes. The reaction product (10 μL) was adsorbed on a P81 ion-exchange paper, and the paper was washed with phosphoric acid (100 mmol/L) and measured for cpm on a scintillation counter.
# CREB Phosphopeptide is Lys-Arg-Arg-Glu-Ile-Leu-Ser-Arg-Arg-Pro-Ser(P)-Tyr-Arg.
# Sequence of rabbit GSK-3β (G1T8E2 1-432): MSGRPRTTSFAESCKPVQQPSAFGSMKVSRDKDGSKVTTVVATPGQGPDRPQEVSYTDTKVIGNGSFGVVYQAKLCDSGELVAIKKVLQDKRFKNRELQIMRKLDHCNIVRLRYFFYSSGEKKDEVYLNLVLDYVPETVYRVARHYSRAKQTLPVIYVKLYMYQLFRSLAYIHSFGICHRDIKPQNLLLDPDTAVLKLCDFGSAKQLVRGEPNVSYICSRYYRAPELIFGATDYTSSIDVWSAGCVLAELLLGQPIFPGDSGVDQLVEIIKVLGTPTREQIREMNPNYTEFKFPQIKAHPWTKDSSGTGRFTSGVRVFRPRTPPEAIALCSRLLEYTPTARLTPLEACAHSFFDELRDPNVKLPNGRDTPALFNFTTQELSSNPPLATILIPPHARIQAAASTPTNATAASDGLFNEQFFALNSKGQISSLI
Compound,IC50 (rabbit GSK-3β),melting point
"N#CC1=C(C2CCNCC2)Nc2n[nH]cc2C1c1cccc2nonc12 (stereo not shown) [Example 1002, 4-(2,1,3-Benzoxadiazol-4-yl)-5-cyano-4,7-dihydro-6-(piperidin-4-yl)-2H-pyrazolo[3,4-b]pyridine]",10 nM,216 °C
"CN1CCC(C2=C(C#N)C(c3cccc4nonc34)c3c[nH]nc3N2)CC1 (stereo not shown) [Example 1003, 4-(2,1,3-Benzoxadiazol-4-yl)-5-cyano-4,7-dihydro-6-(1-methylpiperidin-4-yl)-2H-pyrazolo[3,4-b]pyridine]",2.5 nM,
"N#CC1=C(C2CCCCN2)Nc2n[nH]cc2C1c1cccc2nonc12 (stereo not shown) [Example 1008, 4-(2,1,3-Benzoxadiazol-4-yl)-5-cyano-4,7-dihydro-6-(piperidin-2-yl)-2H-pyrazolo[3,4-b]pyridine]",3.7 nM,
"CN1CCOC(C2=C(C#N)C(c3cccc4nonc34)c3c[nH]nc3N2)C1 (stereo not shown) [Example 1011, 4-(2,1,3-Benzoxadiazol-4-yl)-5-cyano-4,7-dihydro-6-(4-methylmorpholin-2-yl)-2H-pyrazolo[3,4-b]pyridine]",14 nM,
"CN(C)C1CCC(C2=C(C#N)C(c3cccc4nonc34)c3c[nH]nc3N2)CC1 (stereo not shown) [Example 1023, 4-(2,1,3-Benzoxadiazol-4-yl)-5-cyano-4,7-dihydro-6-(4-(N,N-dimethylamino)cyclohexyl)-2H-pyrazolo[3,4-b]pyridine]",4.1 nM,
"N#CC1=C(C2CCCCC2=O)Nc2n[nH]cc2C1c1cccc2nonc12 (stereo not shown) [Example 1058, 4-(2,1,3-Benzoxadiazol-4-yl)-5-cyano-4,7-dihydro-6-(2-oxocyclohexan-1-yl)-2H-pyrazolo[3,4-b]pyridine]",1.8 nM,
"CC(=O)CC1=C(C#N)C(c2cccc(C#N)c2Br)c2c[nH]nc2N1 (stereo not shown) [Example 1063, 6-Acetylmethyl-4-(2-bromo-3-cyanophenyl)-5-cyano-4,7-dihydro-2H-pyrazolo[3,4-b]pyridine]",3 nM,230 °C
"N#CC1=C([C@@H]2C[C@H]3CC[C@@H]2NC3)Nc2n[nH]cc2C1c1cccc(C#N)c1Br (stereo partly drawn) [Example 1146, 6-(exo-2-Azabicyclo[2,2,2]octan-6-yl)-4-(2-bromo-3-cyanophenyl)-5-cyano-4,7-dihydro-2H-pyrazolo[3,4-b]pyridine 2 Hydrochloride]",0.61 nM,
"CN1C[C@@H]2CC[C@H]1[C@H](C1=C(C#N)C(c3cccc(C#N)c3Br)c3c[nH]nc3N1)C2 (stereo partly drawn) [Example 1148, 4-(2-Bromo-3-cyanophenyl)-5-cyano-4,7-dihydro-6-(exo-2-methyl-2-azabicyclo[2,2,2]octan-6-yl)-2H-pyrazolo[3,4-b]pyridine]",3.2 nM,
"CNC(C)C1=C(C#N)C(c2cccc(C#N)c2Br)c2c[nH]nc2N1 (stereo not shown) [Example 1155, 4-(2-Bromo-3-cyanophenyl)-5-cyano-4,7-dihydro-6-(1-(methylamino)ethyl)-2H-pyrazolo[3,4-b]pyridine 2 Hydrochloride]",2.2 nM,
"CCCC1=C(c2nnc(C)o2)C(c2cccc(C#N)c2Br)c2c[nH]nc2N1 (stereo not shown) [Example 1158, 4-(2-Bromo-3-cyanophenyl)-4,7-dihydro-5-(5-methyl-1,3,4-oxadiazol-2-yl)-6-propyl-2H-pyrazolo[3,4-b]pyridine]",0.65 nM,

# From patent publication US6977262B2, “Dihydropyrazolopyridine compounds and pharmaceutical use thereof” (Mitsubishi Pharma Corporation, priority 2001, dated 2005)
